# Experimental data: paper PMC6829864, “Determination of Ligand Profiles for Pseudomonas aeruginosa Solute Binding Proteins” (International Journal of Molecular Sciences, 2019)
# Values joined by “and” are separate entries in the source; they are usually repeats but may differ in a detail not shown here. Equal values may be shown once. “Also recorded” adds a separate entry of the source. Where a SMILES comes first, the peptide text is derived from it.
# Experiments:
# PA4500 (dppA3) [1] = molecular target: T1, PA4500 (dppA3) (Pseudomonas aeruginosa, UniProt Q9HVS1); experiment: DSF thermal shift ligand screening, PA4500; assay type: binding, Pseudomonas aeruginosa PAO1; settings: arrays PM3B, PM6, PM7, PM8
# T1 sequence (Q9HVS1 25-533): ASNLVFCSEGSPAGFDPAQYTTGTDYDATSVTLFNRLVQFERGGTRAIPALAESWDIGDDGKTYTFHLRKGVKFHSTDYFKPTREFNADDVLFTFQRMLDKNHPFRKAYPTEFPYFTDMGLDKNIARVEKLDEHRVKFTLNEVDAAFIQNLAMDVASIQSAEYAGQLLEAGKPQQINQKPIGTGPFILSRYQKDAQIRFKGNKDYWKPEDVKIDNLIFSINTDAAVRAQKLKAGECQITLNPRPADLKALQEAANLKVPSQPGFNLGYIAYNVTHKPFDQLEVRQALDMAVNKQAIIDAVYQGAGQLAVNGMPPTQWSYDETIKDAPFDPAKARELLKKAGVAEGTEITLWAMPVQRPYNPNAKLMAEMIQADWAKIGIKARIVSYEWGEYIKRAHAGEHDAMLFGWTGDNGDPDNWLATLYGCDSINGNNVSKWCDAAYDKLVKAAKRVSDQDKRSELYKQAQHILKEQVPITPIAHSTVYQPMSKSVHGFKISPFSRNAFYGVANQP
# PA4500 (dppA3) [2] = molecular target: T1, PA4500 (dppA3); experiment: Isothermal titration calorimetry, PA4500; assay type: binding, Pseudomonas aeruginosa PAO1; settings: 25 °C; for Kd: read-out: KD by ITC (converted)
# PA4497 (dppA2) = molecular target: T2, PA4497 (dppA2) (Pseudomonas aeruginosa, UniProt Q9HVS4); assay type: binding; settings: arrays PM3B, PM6, PM7, PM8
# T2 sequence (Q9HVS4 25-532): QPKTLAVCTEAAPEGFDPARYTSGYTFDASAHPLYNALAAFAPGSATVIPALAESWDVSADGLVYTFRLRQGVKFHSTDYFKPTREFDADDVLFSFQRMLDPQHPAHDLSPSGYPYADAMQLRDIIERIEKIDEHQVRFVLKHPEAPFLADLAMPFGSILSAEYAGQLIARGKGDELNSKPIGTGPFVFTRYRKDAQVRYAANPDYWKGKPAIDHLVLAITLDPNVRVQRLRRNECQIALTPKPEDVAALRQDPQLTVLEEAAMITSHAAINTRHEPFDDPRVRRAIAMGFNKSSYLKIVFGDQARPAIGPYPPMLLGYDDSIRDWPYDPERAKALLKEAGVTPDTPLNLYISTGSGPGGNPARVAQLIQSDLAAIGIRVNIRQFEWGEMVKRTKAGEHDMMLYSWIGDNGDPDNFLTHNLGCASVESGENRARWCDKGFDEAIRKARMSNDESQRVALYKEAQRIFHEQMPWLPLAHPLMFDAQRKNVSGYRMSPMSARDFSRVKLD
# [3] = system: Pseudomonas aeruginosa PAO1; assay type: cell-based; settings: chemoeffector 1 mM; for Chemotaxis: capillary assay, 30 min
# [4] = molecular target: PA4497 (DppA2) solute binding protein of Pseudomonas aeruginosa PAO1 (Pseudomonas aeruginosa PAO1) (UniProt Q9HVS4); experiment: differential scanning fluorimetry thermal shift assay
# [5] = molecular target: PA4500 (DppA3) (Pseudomonas aeruginosa PAO1) (UniProt Q9HVS1); experiment: ITC
# Chain of PA4500 (DppA3) (Pseudomonas aeruginosa PAO1) (Q9HVS1 25-533): as the sequence (Q9HVS1 25-533) above
# [6] = molecular target: PA4500 (DppA3) solute binding protein of Pseudomonas aeruginosa PAO1 (Pseudomonas aeruginosa PAO1) (UniProt Q9HVS1); experiment: differential scanning fluorimetry thermal shift assay
# Chain of PA4500 (DppA3) solute binding protein of Pseudomonas aeruginosa PAO1 (Pseudomonas aeruginosa PAO1) (Q9HVS1 25-533): as the sequence (Q9HVS1 25-533) above
# PA3889 (opuCC) = PA3889 (opuCC) (Pseudomonas aeruginosa, UniProt Q9HXC4); experiment: Isothermal titration calorimetry, PA3889; assay type: binding, Pseudomonas aeruginosa PAO1; settings: 25 °C
# Chain of PA3889 (opuCC) (Q9HXC4 24-311): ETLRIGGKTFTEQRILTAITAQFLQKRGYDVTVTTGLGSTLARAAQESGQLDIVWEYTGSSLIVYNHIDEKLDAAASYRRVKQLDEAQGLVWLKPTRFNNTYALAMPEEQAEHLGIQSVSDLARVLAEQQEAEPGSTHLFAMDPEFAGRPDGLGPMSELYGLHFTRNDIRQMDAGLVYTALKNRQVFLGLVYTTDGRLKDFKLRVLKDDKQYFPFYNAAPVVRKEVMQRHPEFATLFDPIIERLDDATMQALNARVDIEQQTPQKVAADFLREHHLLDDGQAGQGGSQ
# PA1863 (modA) = PA1863 (modA) (Pseudomonas aeruginosa, UniProt Q9I2N2); experiment: biochemical; assay type: binding, Pseudomonas aeruginosa PAO1
# Chain of PA1863 (modA) (Q9I2N2 24-251): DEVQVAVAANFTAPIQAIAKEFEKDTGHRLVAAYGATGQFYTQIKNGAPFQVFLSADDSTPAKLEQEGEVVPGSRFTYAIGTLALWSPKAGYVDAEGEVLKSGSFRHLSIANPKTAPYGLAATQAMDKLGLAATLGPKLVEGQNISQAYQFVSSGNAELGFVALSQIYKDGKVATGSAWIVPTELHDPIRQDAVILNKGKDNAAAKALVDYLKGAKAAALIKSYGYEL
# PA1074 (braC) = PA1074 (braC) (Pseudomonas aeruginosa, UniProt P21175); experiment: biochemical; assay type: binding, Pseudomonas aeruginosa PAO1
# Chain of PA1074 (braC) (P21175 27-373): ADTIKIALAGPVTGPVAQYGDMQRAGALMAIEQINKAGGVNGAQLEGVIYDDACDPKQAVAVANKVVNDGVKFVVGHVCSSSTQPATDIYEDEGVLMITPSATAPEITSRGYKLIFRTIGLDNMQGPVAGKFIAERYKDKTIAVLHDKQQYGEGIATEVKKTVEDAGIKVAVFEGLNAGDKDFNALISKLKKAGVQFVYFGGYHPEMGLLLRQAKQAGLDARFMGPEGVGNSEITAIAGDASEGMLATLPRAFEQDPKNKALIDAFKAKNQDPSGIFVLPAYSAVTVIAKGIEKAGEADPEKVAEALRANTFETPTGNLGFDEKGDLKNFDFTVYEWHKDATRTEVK
# PA4913 = PA4913 (Pseudomonas aeruginosa, UniProt Q9HUQ0); experiment: DSF thermal shift ligand screening, PA4913; assay type: binding, Pseudomonas aeruginosa PAO1; settings: Tm change vs ligand-free protein
# Chain of PA4913 (Q9HUQ0 28-374): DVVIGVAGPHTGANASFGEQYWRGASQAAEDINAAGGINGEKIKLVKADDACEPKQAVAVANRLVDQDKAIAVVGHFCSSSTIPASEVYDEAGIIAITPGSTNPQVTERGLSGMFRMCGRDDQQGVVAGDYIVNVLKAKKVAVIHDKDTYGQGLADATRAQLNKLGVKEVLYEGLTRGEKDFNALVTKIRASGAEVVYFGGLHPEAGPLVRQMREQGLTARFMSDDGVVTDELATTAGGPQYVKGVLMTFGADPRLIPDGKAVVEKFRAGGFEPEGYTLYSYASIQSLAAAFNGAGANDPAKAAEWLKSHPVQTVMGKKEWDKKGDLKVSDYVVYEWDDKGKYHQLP
# PA1493 (cysP) = PA1493 (cysP) (Pseudomonas aeruginosa, UniProt Q9I3L9); experiment: biochemical; assay type: binding, Pseudomonas aeruginosa PAO1; settings: PA1493 (cysP); 25 °C
# Chain of PA1493 (cysP) (Q9I3L9 23-332): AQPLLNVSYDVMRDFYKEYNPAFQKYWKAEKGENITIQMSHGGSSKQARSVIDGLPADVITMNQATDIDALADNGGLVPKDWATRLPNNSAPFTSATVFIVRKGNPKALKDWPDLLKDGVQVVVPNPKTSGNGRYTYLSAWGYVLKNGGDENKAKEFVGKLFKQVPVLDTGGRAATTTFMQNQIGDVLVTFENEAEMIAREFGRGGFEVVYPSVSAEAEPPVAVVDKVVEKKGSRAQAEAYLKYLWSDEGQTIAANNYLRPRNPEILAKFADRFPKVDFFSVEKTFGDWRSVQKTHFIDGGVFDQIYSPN
# PA0222 = molecular target: T3, PA0222 (Pseudomonas aeruginosa, UniProt Q9I6R6); experiment: Isothermal titration calorimetry, PA0222; assay type: binding, Pseudomonas aeruginosa PAO1; settings: 25 °C
# T3 sequence (Q9I6R6 29-352): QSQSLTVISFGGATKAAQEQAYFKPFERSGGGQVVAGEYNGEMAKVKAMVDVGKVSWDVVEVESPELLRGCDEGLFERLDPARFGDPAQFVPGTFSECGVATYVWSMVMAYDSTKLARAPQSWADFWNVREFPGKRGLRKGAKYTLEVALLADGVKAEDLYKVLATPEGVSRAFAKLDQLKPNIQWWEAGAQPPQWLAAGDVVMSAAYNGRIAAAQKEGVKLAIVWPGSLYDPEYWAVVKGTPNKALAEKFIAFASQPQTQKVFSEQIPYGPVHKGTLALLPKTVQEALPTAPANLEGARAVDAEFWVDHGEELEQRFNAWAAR
# PA3610 (potD) = PA3610 (potD) (Pseudomonas aeruginosa, UniProt Q9HY16); experiment: Isothermal titration calorimetry, PA3610; assay type: binding, Pseudomonas aeruginosa PAO1; settings: 25 °C, read-out: KD by ITC (converted)
# Chain of PA3610 (potD) (Q9HY16 21-354): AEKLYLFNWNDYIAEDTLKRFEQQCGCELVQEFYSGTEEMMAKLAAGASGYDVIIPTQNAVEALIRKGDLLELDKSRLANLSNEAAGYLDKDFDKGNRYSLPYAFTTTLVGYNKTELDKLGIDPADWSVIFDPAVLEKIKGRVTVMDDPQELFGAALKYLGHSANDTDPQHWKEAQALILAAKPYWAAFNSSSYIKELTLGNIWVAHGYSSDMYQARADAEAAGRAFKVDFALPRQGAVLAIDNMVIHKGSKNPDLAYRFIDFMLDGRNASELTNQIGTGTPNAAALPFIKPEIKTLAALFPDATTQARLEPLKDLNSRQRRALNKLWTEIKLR
molecule,measurement,setting,value
C[C@H](N)C(=O)N[C@H](C(=O)O)[C@@H](C)O [Ala-Thr] (H-Ala-Thr-OH; N-terminus and C-terminus assumed),Tm DSF (Tm increase),PA4500 (dppA3) [1],7 °C
same,Kd,PA4500 (dppA3) [2],980 nM
C[C@H](N)C(=O)N[C@@H](C)C(=O)N[C@@H](C)C(=O)O [Ala-Ala-Ala],Tm DSF (Tm increase),PA4497 (dppA2),9.1 °C
same,No Binding Observed by ITC,PA4500 (dppA3) [2],absence of binding
same,Chemotaxis,[3]; except molybdate 0.1 mM,No (Positive chemotaxis was considered when the number of bacterial cells per capillary was superior to 5000.)
Gly-Gly-Ala (peptide),Tm increase (DSF),[4],7.6 °C
Ala-Ala (peptide),Ka,[5],4.71e+06 M⁻¹
same,Tm increase (DSF),[6],11.3 °C
C[N+](C)(C)CCO [Choline],No Binding Observed by ITC,PA3889 (opuCC),no binding heats were observed
[O]=[V]([O-])([O-])[O-] [Vanadate],No Binding Observed by ITC,PA1863 (modA),did not reveal any binding
C[C@H](N)C(=O)O [L-Ala],Kd,PA1074 (braC),210 nM
same,No Binding Observed by ITC,PA4500 (dppA3) [2],absence of binding
same,Tm DSF (Tm increase),PA4913,12.7 °C
Leu-Leu-Leu (peptide),Tm increase (DSF),[4],5 °C
Ala-Phe (peptide),Ka,[5],162000 M⁻¹
same,Tm increase (DSF),[6],2 °C
NCC(=O)NC(Cc1ccccc1)C(=O)NC(Cc1ccccc1)C(=O)O (stereo not drawn) [Gly-Phe-Phe] (H-Gly-Phe-Phe-OH; configuration not given here),Tm DSF (Tm increase),PA4497 (dppA2),6.6 °C
C[C@H](N)C(=O)N[C@@H](Cc1c[nH]cn1)C(=O)O [Ala-His] (H-Ala-His-OH; N-terminus and C-terminus assumed),Tm DSF (Tm increase),PA4500 (dppA3) [1],3.0 °C
same,Kd,PA4500 (dppA3) [2],7400 nM
NCC(=O)NC(CO)C(=O)O (stereo not shown) [Gly-Ser],Chemotaxis,[3]; except molybdate 0.1 mM,Yes (Positive chemotaxis was considered when the number of bacterial cells per capillary was superior to 5000.)
CC(C)CC(N)C(=O)NC(CC(C)C)C(=O)NC(CC(C)C)C(=O)O (stereo not drawn) [Leu-Leu-Leu] (H-Leu-Leu-Leu-OH; configuration not given here),Tm DSF (Tm increase),PA4497 (dppA2),5.0 °C
NCC(=O)NCC(=O)N[C@@H](Cc1ccccc1)C(=O)O [Gly-Gly-Phe] (H-Gly-Gly-Phe-OH),Tm DSF (Tm increase),PA4497 (dppA2),3.7 °C
Ala-His (peptide),Ka,[5],134000 M⁻¹
same,Tm increase (DSF),[6],3 °C
Gly-Gly-Gly (peptide),Tm increase (DSF),[4],4.4 °C
Val-Tyr-Val (peptide),Tm increase (DSF),[4],5 °C
O=[Se](O)O [selenite],No Binding Observed by ITC,PA1493 (cysP),did not show any binding
CC[C@H](C)[C@H](N)C(=O)O [L-Ile],Kd,PA1074 (braC),280 nM
C[C@H](N)C(=O)N[C@@H](C)C(=O)O [Ala-Ala] (H-Ala-Ala-OH),Tm DSF (Tm increase),PA4500 (dppA3) [1],11 °C and 11.3 °C
same,Kd,PA4500 (dppA3) [2],210 ± 20 nM
Gly-Phe-Phe (peptide),Tm increase (DSF),[4],6.6 °C
C[C@H](NC(=O)CNC(=O)CN)C(=O)O [Gly-Gly-Ala],Tm DSF (Tm increase),PA4497 (dppA2),7.6 °C
same,Chemotaxis,[3]; except molybdate 0.1 mM,No (Positive chemotaxis was considered when the number of bacterial cells per capillary was superior to 5000.)
N[C@@H](CCO)C(=O)O [L-Homoserine],Kd,PA1074 (braC),720 nM
same,"Chemotaxis response, number of cells per capillary",[3]; corrected for buffer capillaries,"more than 300,000 cells per capillary"
Gly-Gly-Ile (peptide),Tm increase (DSF),[4],5.1 °C
Gly-Gly-Phe (peptide),Tm increase (DSF),[4],3.7 °C
CCC(N)C(=O)O (stereo not drawn) [α-aminobutyrate],Tm DSF (Tm increase),PA4913,8.1 °C
CC(C)[C@H](NC(=O)CN)C(=O)O [Gly-Val] (H-Gly-Val-OH),Tm DSF (Tm increase),PA4500 (dppA3) [1],2.0 °C
same,Kd,PA4500 (dppA3) [2],6300 nM
Gly-Val (peptide),Ka,[5],157000 M⁻¹
same,Tm increase (DSF),[6],2 °C
N[C@@H](Cc1ccccc1)C(=O)NCC(=O)NCC(=O)O [Phe-Gly-Gly] (H-Phe-Gly-Gly-OH),Tm DSF (Tm increase),PA4497 (dppA2),8.3 °C
CC(C)[C@H](N)C(=O)N[C@@H](Cc1ccc(O)cc1)C(=O)N[C@H](C(=O)O)C(C)C [Val-Tyr-Val] (H-Val-Tyr-Val-OH),Tm DSF (Tm increase),PA4497 (dppA2),5.0 °C
same,Chemotaxis,[3]; except molybdate 0.1 mM,Yes (Positive chemotaxis was considered when the number of bacterial cells per capillary was superior to 5000.)
NCC(=O)NCC(=O)NCC(=O)O [Gly-Gly-Gly] (H-Gly-Gly-Gly-OH),Tm DSF (Tm increase),PA4497 (dppA2),4.4 °C
phosphate,No Binding Observed by ITC,PA1493 (cysP),did not show any binding
[O]=[Mn](=[O])([O-])[O-] [manganate],No Binding Observed by ITC,PA1863 (modA),did not reveal any binding
C[C@H](N)C(=O)NCC(=O)O [Ala-Gly] (H-Ala-Gly-OH),Chemotaxis,[3]; except molybdate 0.1 mM,No (Positive chemotaxis was considered when the number of bacterial cells per capillary was superior to 5000.)
Ala-Ala-Ala (peptide),Tm increase (DSF),[4],9.1 °C
N[C@@H](CCC(=O)O)C(=O)N[C@@H](CCC(=O)O)C(=O)O [Glu-Glu] (H-Glu-Glu-OH),No Binding Observed by ITC,PA4500 (dppA3) [2],absence of binding
Leu-Gly-Gly (peptide),Tm increase (DSF),[4],3.2 °C
"CCCC(=O)O [Butyrate, butyric acid]",No Binding Observed by ITC,PA0222,failed to bind
[O]=[Mo](=[O])([O-])[O-] [Molybdate],No Binding Observed by ITC,PA1493 (cysP),did not show any binding
same,Kd,"PA1863 (modA); Affinity by ITC, PA1863 (modA), value as printed in text",~10 nM
same,Kd,"PA1863 (modA); KD by ITC, PA1863 (modA), 25 °C",10 nM
NCCCCCN [Cadaverine],Kd,PA3610 (potD),65000 nM
CC(C)[C@H](N)C(=O)O [L-Val],Kd,PA1074 (braC),70 nM
same,Tm DSF (Tm increase),PA4913,4.1 °C
CC(C)C[C@H](N)C(=O)NCC(=O)NCC(=O)O [Leu-Gly-Gly] (H-Leu-Gly-Gly-OH),Tm DSF (Tm increase),PA4497 (dppA2),3.2 °C
same,Chemotaxis,[3]; except molybdate 0.1 mM,Yes (Positive chemotaxis was considered when the number of bacterial cells per capillary was superior to 5000.)
Tungstate,KD by ITC,"PA1863 (modA); PA1863 (modA), 25 °C",ultra-tightly; also recorded: Ultratight
same,Chemotaxis,[3]; except molybdate 0.1 mM,No (Positive chemotaxis was considered when the number of bacterial cells per capillary was superior to 5000.)
Phe-Gly-Gly (peptide),Tm increase (DSF),[4],8.3 °C
C[C@@H](N)C(=O)O [D-Ala],No Binding Observed by ITC,PA1074 (braC),no binding was detected
same,Tm DSF (Tm increase),PA4913,6.8 °C
same,Chemotaxis,[3]; except molybdate 0.1 mM,"Yes [15, 41] Yes [15, 41] Yes [15, 41] Yes [15, 41] Yes [15, 41] Yes Yes [15, 41] n. d. (Positive chemotaxis was considered when the number of bacterial cells per capillary was superior to 5000.)"
same,Chemotaxis response in words,[3]; except molybdate 0.1 mM,very strong taxis
CC[C@H](C)[C@H](NC(=O)CNC(=O)CN)C(=O)O [Gly-Gly-Ile] (H-Gly-Gly-Ile-OH),Tm DSF (Tm increase),PA4497 (dppA2),5.1 °C
C[C@H](N)C(=O)N[C@@H](Cc1ccccc1)C(=O)O [Ala-Phe],Tm DSF (Tm increase),PA4500 (dppA3) [1],2.0 °C
same,Kd,PA4500 (dppA3) [2],6100 nM
Ala-Thr (peptide),Ka,[5],1.09e+06 M⁻¹
same,Tm increase (DSF),[6],7 °C
